Measurements from PMC2248166, “Quantitative peptide binding motifs for 19 human and mouse MHC class I molecules derived using positional scanning combinatorial peptide libraries” (Immunome Research, 2008).

Tests used:
Type in all cases: binding
HLA A*3001 = HLA A*3001 (Homo sapiens, UniProt P04439, D140H/D185E/E176W/F33S/G80R/H175R/K168Q/R138E/R41S); assay: biochemical
HLA A*3201 = HLA A*3201 (Homo sapiens, UniProt P04439, A270S/D101S/D185E/E176V/E277Q/F133L/G103R/G107R/G231S/H175R/I121M/I218V/I322F/K168Q/L105A/L300P/L318F/M331R/P208A/P217A/Q94H/R106L/R138Q/S129P/T104I/T323A/T345S/V100E/V321M/V358M); assay: biochemical
HLA A*6802 = HLA A*6802 (Homo sapiens, UniProt P04439, A269V/D140Y/D185E/E176V/E277Q/E87N/F33Y/G231S/I121R/I166T/I218V/L180W/L300P/L318F/N151K/P208A/P217A/Q86R/R138H/R169H/S129P/T345S/V36M)
HLA B*0801 = HLA B*0801 (Homo sapiens, UniProt P01889, A93T/A95T/D138N/E176V/E187T/K202T/Q94N/R180D/S35A/V36M/Y33D/Y91F); assay: biochemical
HLA B*1501 = HLA B*1501 (Homo sapiens, UniProt P01889, A329T/A93T/A95T/C349S/D201E/D98Y/E187L/E204Q/E69M/E70A/K202T/N87E/Q94N/R155S/R180W/S121R/S35A/S48A/V306I/V36M/Y140S/Y91S); assay: biochemical
HLA B*1503 = HLA B*1503 (Homo sapiens, UniProt P01889, A329T/A93T/A95T/C349S/D201E/D98Y/E187L/E204Q/K202T/N87E/Q94N/R155S/R180L/S121R/S35A/V306I/V36M/Y140S/Y91S); assay: biochemical
HLA B*3501 = HLA B*3501 (Homo sapiens, UniProt P01889, A329T/A93T/A95T/C349S/D201E/D98Y/E176V/E187L/E204Q/E69T/I218V/K202T/L119I/Q94N/R155S/R180L/S121R/S35A/S48A/T118I/V127L/V306I/V36M/Y140S/Y91F)
HLA B*5101 = HLA B*5101 (Homo sapiens, UniProt P01889, A329T/A93T/A95T/C349S/D138N/D201E/D98Y/E187L/E204Q/E69T/G107R/I218V/K202T/L105A/L119W/N104I/Q94N/R106L/R155S/R180L/S101N/S121T/S35A/S48A/V306I/V36M/Y195H/Y91F)
HLA B*5301 = HLA B*5301 (Homo sapiens, UniProt P01889, A329T/A93T/A95T/C349S/D201E/D98Y/E176V/E187L/E204Q/E69T/G107R/I218V/K202T/L105A/L119I/N104I/Q94N/R106L/R155S/R180L/S101N/S121R/S35A/S48A/T118I/V127L/V306I/V36M/Y140S/Y91F)
HLA B*5401 = HLA B*5401 (Homo sapiens, UniProt P01889, A329T/C349S/D138N/D201E/E176V/E187T/E204Q/E69G/I76V/K202T/L119W/R155S/R180L/S121T/S35A/S48A/V127L/V306I/V36M/Y140L)
HLA B*5801 = HLA B*5801 (Homo sapiens, UniProt P01889, A329T/C349S/D201E/D98Y/E176V/E187L/E204Q/E69T/G107R/I218V/I90N/K202T/L105A/L119I/N104I/N87E/Q89R/Q94S/R106L/R155S/R180L/R86G/S101N/S121R/S35A/S48A/T118I/V127L/V306I/V36M/Y140S/Y91M)
HLA B*5802 = HLA B*5802 (Homo sapiens, UniProt P01889, A329T/C349S/D201E/D98Y/E176V/E187L/E204Q/E69T/G107R/I218V/I90N/K202T/L105A/N104I/N87E/Q89R/Q94S/R106L/R155S/R180L/R86G/S101N/S121W/S35A/S48A/V127L/V306I/V36M/Y140S/Y91M)
H-2 D^b = H-2 D^b (Mus musculus, UniProt P01899)
H-2 D^d = H-2 D^d (Mus musculus, UniProt P01900)
H-2 K^d = H-2 K^d (Mus musculus, UniProt P01902)
H-2 K^k = H-2 K^k (Mus musculus, UniProt P04223)
Sequence of H-2 K^k (P01887 21-119): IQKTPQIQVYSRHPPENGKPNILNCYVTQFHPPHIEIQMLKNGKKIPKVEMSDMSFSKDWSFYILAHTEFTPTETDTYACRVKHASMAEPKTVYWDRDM
Sequence of H-2 K^k (P04223 22-369): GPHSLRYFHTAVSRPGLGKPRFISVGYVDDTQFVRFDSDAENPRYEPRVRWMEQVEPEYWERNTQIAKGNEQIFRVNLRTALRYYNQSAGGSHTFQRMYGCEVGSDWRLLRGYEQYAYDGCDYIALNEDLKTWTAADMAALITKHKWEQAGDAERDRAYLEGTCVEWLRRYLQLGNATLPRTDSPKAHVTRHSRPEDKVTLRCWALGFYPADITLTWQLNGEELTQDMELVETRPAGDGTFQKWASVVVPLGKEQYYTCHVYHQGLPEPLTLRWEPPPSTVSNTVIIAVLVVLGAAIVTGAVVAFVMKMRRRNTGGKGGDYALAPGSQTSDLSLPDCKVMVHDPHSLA

Sequence of H-2 D^b (P01887 21-119): as the sequence (P01887 21-119) above
Sequence of H-2 D^b (P01899 25-362): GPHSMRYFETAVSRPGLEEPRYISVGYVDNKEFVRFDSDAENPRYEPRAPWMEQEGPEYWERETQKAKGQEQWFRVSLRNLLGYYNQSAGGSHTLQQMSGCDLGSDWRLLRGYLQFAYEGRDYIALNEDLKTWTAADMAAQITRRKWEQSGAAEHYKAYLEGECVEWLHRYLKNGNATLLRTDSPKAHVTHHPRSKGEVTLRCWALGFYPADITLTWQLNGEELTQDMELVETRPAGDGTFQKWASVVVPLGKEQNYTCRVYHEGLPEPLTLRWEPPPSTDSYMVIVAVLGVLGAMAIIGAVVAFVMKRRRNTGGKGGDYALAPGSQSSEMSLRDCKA
Sequence of H-2 K^d (P01887 21-119): as the sequence (P01887 21-119) above
Sequence of H-2 K^d (P01902 22-368): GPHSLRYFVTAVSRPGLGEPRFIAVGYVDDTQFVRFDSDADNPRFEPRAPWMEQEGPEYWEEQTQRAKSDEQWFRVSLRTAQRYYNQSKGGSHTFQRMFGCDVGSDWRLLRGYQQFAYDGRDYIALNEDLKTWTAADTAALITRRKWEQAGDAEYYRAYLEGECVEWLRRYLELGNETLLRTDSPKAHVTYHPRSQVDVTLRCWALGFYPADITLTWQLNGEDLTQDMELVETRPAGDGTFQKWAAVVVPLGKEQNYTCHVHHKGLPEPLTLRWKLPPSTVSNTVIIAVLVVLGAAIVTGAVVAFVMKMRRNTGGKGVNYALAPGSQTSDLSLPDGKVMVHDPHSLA
Sequence of H-2 D^d (P01900 whole entry, looked up): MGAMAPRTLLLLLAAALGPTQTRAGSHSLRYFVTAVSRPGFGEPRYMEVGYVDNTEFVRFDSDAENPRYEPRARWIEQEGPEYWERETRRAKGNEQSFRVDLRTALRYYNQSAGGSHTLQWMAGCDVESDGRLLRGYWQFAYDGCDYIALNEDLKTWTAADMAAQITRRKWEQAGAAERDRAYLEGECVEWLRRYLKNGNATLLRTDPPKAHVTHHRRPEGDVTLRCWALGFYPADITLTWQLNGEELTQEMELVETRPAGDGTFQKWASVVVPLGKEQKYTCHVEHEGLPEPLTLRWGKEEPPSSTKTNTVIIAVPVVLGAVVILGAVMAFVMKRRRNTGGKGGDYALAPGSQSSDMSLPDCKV

| Sequence | Normalized average relative binding affinity(ARB) (HLA A*3001) | Normalized average relative binding affinity(ARB) (HLA A*3201) | Normalized average relative binding affinity(ARB) (HLA A*6802) | Normalized average relative binding affinity(ARB) (HLA B*0801) | Normalized average relative binding affinity(ARB) (HLA B*1501) | Normalized average relative binding affinity(ARB) (HLA B*1503) | Normalized average relative binding affinity(ARB) (HLA B*3501) | Normalized average relative binding affinity(ARB) (HLA B*5101) | Normalized average relative binding affinity(ARB) (HLA B*5301) | Normalized average relative binding affinity(ARB) (HLA B*5401) | Normalized average relative binding affinity(ARB) (HLA B*5801) | Normalized average relative binding affinity(ARB) (HLA B*5802) | Normalized average relative binding affinity(ARB) (H-2 D^b) | Normalized average relative binding affinity(ARB) (H-2 D^d) | Normalized average relative binding affinity(ARB) (H-2 K^d) | Normalized average relative binding affinity(ARB) (H-2 K^k) |
| --- | --- | --- | --- | --- | --- | --- | --- | --- | --- | --- | --- | --- | --- | --- | --- | --- |
| XXXXXSXXX [3064.0116] | 0.44 | 0.80 | 0.57 | 0.052 | 0.35 | 0.51 | 0.33 | 0.32 | 0.17 | 0.18 | 0.45 | 0.055 | 0.70 | 0.63 | 0.25 | 0.70 |
| XXXXXTXXX [3064.0117] | 0.27 | 0.77 | 0.84 | 0.068 | 0.55 | 0.79 | 0.16 | 0.32 | 0.30 | 0.32 | 0.72 | 0.17 | 0.55 | 1.0 | 0.26 | 0.70 |
| XXXXXVXXX [3064.0118] | 0.22 | 1.0 | 0.60 | 0.077 | 0.37 | 0.78 | 0.34 | 0.20 | 0.65 | 0.17 | 0.72 | 0.26 | 0.51 | 0.63 | 0.32 | 0.59 |
| XXXXXWXXX [3064.0119] | 0.14 | 0.26 | 0.44 | 0.046 | 0.36 | 0.37 | 0.99 | 0.10 | 0.36 | 0.18 | 0.21 | 0.29 | 1.0 | 0.77 | 0.29 | 0.49 |
| XXXXXXAXX [3064.0121] | 0.12 | 0.20 | 0.37 | 0.44 | 0.69 | 0.0014 | 0.22 | 0.24 | 0.31 | 0.45 | 0.0045 | 0.032 | 0.65 | 0.037 | 0.17 | 0.12 |
| XXXXXXCXX [3064.0122] | 0.21 | 0.11 | 0.11 | 0.44 | 0.78 | 0.094 | 0.18 | 0.28 | 0.17 | 0.16 | 0.082 | 0.024 | 0.28 | 0.048 | 0.12 | 0.094 |
| XXXXXXDXX [3064.0123] | 0.014 | 0.026 | 0.37 | 0.072 | 0.10 | 0.051 | 0.12 | 0.15 | 0.049 | 0.28 | 0.066 | 0.022 | 0.66 | 0.053 | 0.051 | 0.030 |
| XXXXXXEXX [3064.0124] | 0.050 | 0.092 | 0.42 | 0.32 | 0.49 | 0.043 | 0.36 | 0.37 | 0.29 | 0.26 | 0.15 | 0.092 | 0.96 | 0.060 | 0.14 | 0.13 |
